Source: patent US3944498A, “Germicidal detergent containing a thienyliodonium salt” (The Dow Chemical Company, priority 1973, dated 1976)

Assays:
[1] = tested on: A. aerogenes; test: Agar plate kill test with Ivory soap, A. aerogenes; type: cell-based; conditions: Klebsiella aerogenes, 48 h, read-out: Percent Kill of A. aerogenes
Procedure: (§1) Phenyl-2-thienyliodonium chloride, 2,2'-bisthienyliodonium chloride, and, for comparative purposes, diphenyliodonium chloride are individually dispersed in Ivory soap to provide concentrates containing 1 part by weight of iodonium salt to 50 parts by weight of soap. The soap concentrates are serially dispersed and serially diluted with liquid nutrient agar at 42°C. to prepare culture media containing various concentrations of one of the iodonium salts. The culture media are uniformly inoculated with S. aureus and plated in petri dishes. The inoculation is carried out from broth cultures of the named organism containing about 5×10^8 organisms per milliliter in the proportion of one-tenth milliliter of bacterial culture per 20 milliliters of cultur medium containing each test compound. In a check operation, nutrient agar containing the same amount of Ivory soap is similarly inoculated with the same organism. After two days' incubation at 37°C., the plates are examined for microbial growth.
The procedure described above is repeated with varying concentrations of 4-chlorophenyl-2-thienyliodonium chloride, 3,4-dichlorophenyl-2-thienyliodonium chloride, and for comparative purposes bis(4-chlorophenyl)iodonium chloride, phenyl-4-chlorophenyliodonium chloride and bis(2,4-dichlorophenyl)iodoniumchloride in a series of tests wherein the culture media are inoculated individually with the organism A. aerogenes.
The procedure described above is once again repeated with each of 2,2'-bisthienyliodonium chloride, phenyl-2-thienyliodonium chloride, 4-bromophenyl-2-thienyliodonium chloride, bis(4-bromophenyl)iodonium chloride and bis(4-bromophenyl)iodonium bromide in a series of tests wherein the culture media are inoculated individually with the organism A. aerogenes.

[2] = tested on: S. typhosa; test: Agar plate kill test with Ivory soap, S. typhosa; type: cell-based; conditions: 48 h; 1 p.p.m., Ivory soap; read-out: Percent Kill of S. Typhosa
Procedure: as §1
The procedure described above is again repeated in a series of tests wherein the culture media are inoculated individually with the organism S. typhosa and wherein the culture media contain varying concentrations of one of the iodonium salts, as set forth in following Table II.

[3] = tested on: organisms of mold and mildew; test: Protection of latex paint on wood panels from mold and mildew, tropical chamber; conditions: 0.3 percent by weight in latex paint, two months, 95 percent RH, 82°F
Procedure: 4-Chlorophenyl-2-thienyliodonium chloride is employed in a paint composition to protect the paint from attack and subsequent degradation by the organisms of mold and mildew. In such operations, the salt compound is dispersed and incorporated in the latex paint in the amount of 0.3 percent by weight of the ultimate paint composition.
The paint employed in these operations is prepared by intimately blending a pigment dispersion with a letdown including a synthetic latex comprising an interpolymer of ethyl acrylate, methyl methacrylate, acrylic acid and methacrylic acid. The paint has the following composition.
Wood panels are then painted with the modified compositions as well as with the unmodified paint. The panels are dried and thereafter exposed two months in a tropical chamber at a relative humidity of 95 percent and a temperature of 82°F. (28°C.). Following this period, the wood panels are examined to ascertain what control of […] is obtained.

[4] = Oral median lethal dose in Sprague-Dawley (Cox strain) rats; type: in vivo; conditions: rat, in vivo, po; for LD50: 7 and 14 days
Procedure: (§2) The oral median lethal dose (LD50) of ClPhThICl was also determined in Sprague-Dawley (Cox strain) rats within a weight range of 93 to 118 grams. Five groups of rats, each consisting of 10 males and 10 females, were given the compound in an aqueous 0.5 percent METHOCEL hydroxypropyl methylcellulose (4000 cps.) suspension at a concentration of 300 mg/ml. The compound was administered as a single oral dose at 0.2 logarithmic dose intervals (709, 1120, 1780, 2820, 4450 mg/kg), and the following mortality experience was noted:
(§3) The percent of total mortalities occurring was 53.9, 79.3, 85.7 and 93.6 at 6, 24, 48 and 72 hours post-treatment, respectively. The last death occurred between 72 and 96 hours post-treatment in male rats in the 1780 and 4450 mg/kg groups.

[5] = tested on: Sprague-Dawley (Cox strain) rats; test: as above; type: in vivo
Procedure: as §2, §3

[6] = tested on: Sprague-Dawley (Cox strain) rats; test: as above; type: in vivo; conditions: 708 mg/kg oral, 24 Hours
[7] = tested on: S. typhosa; test: Nutrient agar growth test, S. typhosa (Example 3); type: cell-based; conditions: 0.001 percent by weight, 2 days, 35°C
Text: (§4) The 4-chlorophenyl-2-thienyliodonium chloride, trifluoroacetate and trichloroacetate salts are dispersed in melted nutrient agar to produce culture media containing 0.001 percent by weight of one of the salt compounds. Such melted media are then poured into petri dishes and the solidified surface in each dish inoculated with a 24-hour broth culture, one of the organisms S. aureus and S. typhosa. In a check operation, petri dishes containing unmodified nutrient agar are each individually inoculated in the same manner with the named organisms. After two days' incubation at 35°C. the agar surface in each dish is examined for microbial growth. […] At the time of these observations the check dishes are found to support a heavy growth of the two named organisms.

[8] = tested on: S. aureus; test: Nutrient agar growth test, S. aureus (Example 3); type: cell-based; conditions: 0.001 percent by weight, 2 days, 35°C
Text: as §4

## Clc1ccc([I+]c2cccs2)cc1.[Cl-] [4-Chlorophenyl-2-thienyliodonium chloride]
[1]
  killing at 1 ppm: 100%
[2]
  killing at 1 ppm: 100%
[3]
  control of growth of mold and mildew on painted panels: complete control of the growth of the organisms of mold and mildew
[4]; female rats, 95% confidence limits 785-1540 mg/kg
  LD50: 1100 mg/kg
[4]; male rats, 95% confidence limits 1171-2296 mg/kg
  LD50: 1640 mg/kg
[4]; female rats, 95% confidence limits 1230-2080 mg/kg
  LD50 at 24 h: 1600 mg/kg
[4]; male rats, 95% confidence limits 1241-2610 mg/kg
  LD50 at 24 h: 1800 mg/kg
[5]; 708 mg/kg oral, 7 Days, females
  No. Dead: 0/10
[5]; 708 mg/kg oral, 7 Days, males
  No. Dead: 1/10
[5]; 708 mg/kg oral, 14 Days, females
  No. Dead: 0/10
[5]; 708 mg/kg oral, 14 Days, males
  No. Dead: 1/10
[5]; 1120 mg/kg oral, 7 Days, females
  No. Dead: 6/10
[5]; 1120 mg/kg oral, 7 Days, males
  No. Dead: 2/10
[5]; 1120 mg/kg oral, 14 Days, females
  No. Dead: 6/10
[5]; 1120 mg/kg oral, 14 Days, males
  No. Dead: 2/10
[5]; 1120 mg/kg oral, 24 Hours, females
  No. Dead: 2/10
[5]; 1120 mg/kg oral, 24 Hours, males
  No. Dead: 1/10
[5]; 1780 mg/kg oral, 7 Days, females
  No. Dead: 7/10
[5]; 1780 mg/kg oral, 7 Days, males
  No. Dead: 9/10
[5]; 1780 mg/kg oral, 14 Days, females
  No. Dead: 7/10
[5]; 1780 mg/kg oral, 14 Days, males
  No. Dead: 9/10
[5]; 1780 mg/kg oral, 24 Hours, females
  No. Dead: 6/10
[5]; 1780 mg/kg oral, 24 Hours, males
  No. Dead: 4/10
[5]; 2820 mg/kg oral, 7 Days, females
  No. Dead: 10/10
[5]; 2820 mg/kg oral, 7 Days, males
  No. Dead: 8/10
[5]; 2820 mg/kg oral, 14 Days, females
  No. Dead: 10/10
[5]; 2820 mg/kg oral, 14 Days, males
  No. Dead: 8/10
[5]; 2820 mg/kg oral, 24 Hours, females
  No. Dead: 9/10
[5]; 2820 mg/kg oral, 24 Hours, males
  No. Dead: 8/10
[5]; 4450 mg/kg oral, 7 Days, females
  No. Dead: 10/10
[5]; 4450 mg/kg oral, 7 Days, males
  No. Dead: 10/10
[5]; 4450 mg/kg oral, 14 Days, females
  No. Dead: 10/10
[5]; 4450 mg/kg oral, 14 Days, males
  No. Dead: 10/10
[5]; 4450 mg/kg oral, 24 Hours, females
  No. Dead: 10/10
[5]; 4450 mg/kg oral, 24 Hours, males
  No. Dead: 9/10
[5]; 6 hours post-treatment
  percent of total mortalities occurring: 53.9%
[5]; 24 hours post-treatment
  percent of total mortalities occurring: 79.3%
[5]; 48 hours post-treatment
  percent of total mortalities occurring: 85.7%
[5]; 72 hours post-treatment
  percent of total mortalities occurring: 93.6%
[6]; females
  No. Dead: 0/10
[6]; males
  No. Dead: 1/10
[7]
  microbial growth on agar surface: free of microbial growth
[8]
  microbial growth on agar surface: free of microbial growth
